Laboratory results from patent publication US20230301302A1, “AGROCHEMICAL ADJUVANTS” (Croda International Plc, priority 2020, published 2023).

Assays:
[1] = tested on: African green monkey Vero kidney cells (ATCC CCL-81); assay: Cytotoxicity, alamarBlue cell viability; format: cell-based; conditions: highest concentration tested (128 μg/mL); 24 hours
Experimental: The cytotoxicity of the diketopiperazines was assessed in vitro against African green monkey Vero kidney cells (ATCC CCL-81). Cells were cultured in 15 mL of Eagle's minimal essential medium (Sigma) supplemented with 10% (v/v) fetal bovine serum (VWR), […] penicillin and 0.1 mg/mL streptomycin in T75 cm^2 cell culture flasks. Cells were incubated for 24 hours at 37° C. in a humidified atmosphere of 5% CO2. Culture medium was refreshed every 2-3 days and cells were not allowed to exceed 80% confluency. At 80% confluency the cells were counted, diluted and plated into 96 well flat bottom cell culture plates (Corning) at a cell density of 10,000 cells per well in 90 μL of growth medium. The plates were incubated at 37° C. in a humidified atmosphere of 5% CO2 for 24 hours to allow cells to adhere to the plate before treatment. After 24 hours, adjuvants were solubilised in DMSO, serially diluted and added to the wells at final concentrations ranging from 1 μg/mL to 128 μg/mL. DMSO was used as the vehicle at a final concentration of 1% in the wells. The plates were incubated at 37° C. in a humidified atmosphere of 5% CO2 for 24 hours after which alamarBlue (Invitrogen) was added to each well at 10% of the culture volume. Fluorescence was monitored using a Thermo Scientific Varioskan Flash plate reader at 560/12 excitation, 590 nm emission both at time zero and 4 hrs after alamarBlue addition. After subtracting the time zero emission 590 nm measurement from the final reading, the inferred percentage of cell viability relative to the vehicle control wells was calculated.

[2] = tested on: Botrytis cinerea (ATCC 90479); assay: Adjuvancy: agar growth inhibition assay (colony diameter) with fungicide and/or adjuvant; format: cell-based; conditions: for inherent fungicidal activity: adjuvant on its own, any of the concentrations tested
From the text: As a measure of the adjuvant activity in relation to the activity of the fungicide alone (e.g., pyraclostrobin) to B. cinerea a value of percent inhibition (adjuvant and fungicide) divided by percent inhibition (fungicide) can be defined, with higher values desired. A value of 1 would therefore represent equal activity of the adjuvant/fungicide combination to the fungicide alone, whereas a value above 1 would represent higher activity with the adjuvant/fungicide combination than the fungicide alone. The actives of the present invention may have a value greater than 1. Preferably greater than 1.5, most preferably greater than 2.
Percent Inhibition—The percent inhibition will be understood to represent the amount the fungicide and/or adjuvant that inhibits the visible growth of the microorganism after 48 hours incubation at 22° C. relative to vehicle treated controls. This is calculated using the following formula:
where: • ØC=diameter of the colony grown on agar supplemented with vehicle (i.e. vehicle treated control), and • ØT=diameter of the colony grown on agar supplemented with fungicide and/or adjuvant formulated in an appropriate vehicle (i.e. solvent such as water C2H5OH, CH3OH, CH3CN, DMSO).
Fold Change—The fold change is a measure of the adjuvant/fungicide combination in inhibiting a microorganism compared to the fungicide alone. This indicates how the adjuvant performs relative to the fungicide alone. This is calculated using the following formula:
where: • INHAF=percent inhibition of fungal growth when treated with fungicide and adjuvant, and • INHF=percent inhibition of fungal growth when treated with fungicide alone.
Botrytis cinerea (ATCC 90479) was cultured on Difco Potato Dextrose Agar (PDA) for 7 days with diurnal UV cycles (12 h UV light and 12 h dark). Spores were harvested in a buffered, sterile saline solution (w/v: 0.9% NaCl with 1% Tween 80) and counted using a haemocytometer. The spore suspension was adjusted to a final concentration of 8.5×10^6 spores/mL to create a standardised inoculum.
To prepare hyphal fragments for adjuvant testing, 8.5×10^4 spores were used to inoculate 10 mL of Difco Potato Dextrose Broth in a 150×25 mm tube. The tube was incubated at 220 RPM, 22° C. for 48 hours. To create hyphal fragments from the culture, the culture was transferred to a 50 mL plastic conical tube containing approximately 20 sterile 5 mm diameter glass beads and vortexed for 5 min. After vortexing the tube was allowed to stand for 5 min to allow large mycelial clumps to settle and then the top layer containing hyphal fragments was removed and used as inocula for growth inhibition assays.
Fungicides and adjuvants were dissolved in methanol and added to molten PDA (˜50° C.) and then the agar was distributed in the wells of 12 well multiwell plates (1 mL/well). The plates were cooled to room temperature and 10 μL of hyphal inoculum was added to the centre of each well. The plates were incubated at 22° C. for 48 hours and then the colony diameter was measured using a digital caliper. The biological growth control consisted of hyphae and vehicle (0.07% methanol), the negative control was media and vehicle (0.07% methanol).
The effect of the adjuvants on fungicidal activity is represented as fold increase in growth inhibition. A value of 1 indicates no increase in fungicidal activity. A value less than 1 indicates reduced fungicidal activity and a value greater than 1 indicates increased fungicidal activity.

soybean leaves = assay: Phytotoxicity on leaves, necrosis score; format: in vivo; conditions: Soy, 1 g/L, scale 0 (no necrosis) to 3 (extended necrosis)
Experimental: (§1) Phytotoxicity of the diketopiperazines was assessed on soybean and butterhead lettuce leaves. Soybean seeds were inoculated with Bradyrhizobium japnicum and sown in Levington's M3 compost in 9 cm^2 plastic pots. Soybean plants were given supplementary lighting with SON-T bulbs. Biological control was used to prevent thrip damage (Biolone—Amblyseius cucumeris). The glasshouse temperatures were set to maintain 22° C.±2 during the day and 19° C.±2 at night. Lettuce plants were grown in the same manner without rhizobacteria inoculation. Supplementary lighting was provided by LED bulbs. All plants were maintained as well watered and grown for fourteen days. Test compounds/extracts were resuspended in 2% DMSO ([…]). Synperonic Al1 LQ was used a positive control and UEP-100 as a negative control. Treatments were applied as six 10 μL droplets on the leaf's surface. Phytotoxic tissue damage was assessed 1- and 7-days post-treatment and on a scale of 0 to 3. The phytotoxic effect of the compounds/extract at 1 g/L is represented as a mean phytotoxic necrosis score, where 0=no necrosis; 1=slight spot-like necrosis of the inoculation site; 2=ring-shaped necrosis; 3=extended necrosis.

[3] = tested on: butterhead lettuce leaves; assay: Phytotoxicity on leaves, necrosis score; format: in vivo; conditions: scale 0 (no necrosis) to 3 (extended necrosis)
Experimental: as §1

[4] = Pyra 0.0156 μg/mL, adjuvant 128 μg/mL, vs pyraclostrobin alone, 48 h, 22° C.
[5] = Pyra 0.0313 μg/mL, adjuvant 128 μg/mL, vs pyraclostrobin alone, 48 h, 22° C.
[6] = Pyra 0.0625 μg/mL, adjuvant 128 μg/mL, vs pyraclostrobin alone, 48 h, 22° C.

CN1C(=O)[C@@H]2CCCN2C(=O)/C1=C/c1ccccc1 [DKP (Ia)]
cytotoxicity against Vero cells [1]: did not exhibit any cytotoxicity
Fold Change in Growth Inhibition [2, 4]: 2.18
Fold Change in Growth Inhibition [2, 5]: 3.31
Fold Change in Growth Inhibition [2, 6]: 1.87
Fold Change in Growth Inhibition ([2]; Teb 0.095 μg/mL, adjuvant 25 μg/mL, vs tebuconazole alone): 1.97
Fold Change in Growth Inhibition ([2]; Teb 0.095 μg/mL, adjuvant 50 μg/mL, vs tebuconazole alone): 1.78
Fold Change in Growth Inhibition ([2]; Teb 0.095 μg/mL, adjuvant 100 μg/mL, vs tebuconazole alone): 2.00
Fold Change in Growth Inhibition ([2]; Teb 0.19 μg/mL, adjuvant 25 μg/mL, vs tebuconazole alone): 4.39
Fold Change in Growth Inhibition ([2]; Teb 0.19 μg/mL, adjuvant 50 μg/mL, vs tebuconazole alone): 1.78
Fold Change in Growth Inhibition ([2]; Teb 0.19 μg/mL, adjuvant 100 μg/mL, vs tebuconazole alone): 2.76
inherent fungicidal activity [2]: did not demonstrate any inherent fungicidal activity
Mean Score (phytotoxic necrosis) (soybean leaves; Day 1): 0
Mean Score (phytotoxic necrosis) (soybean leaves; Day 7): did not exhibit any phytotoxicity
Mean Score (phytotoxic necrosis) (soybean leaves; Day 7, listed as DKP (1a)): 0
Mean Score (phytotoxic necrosis) ([3]; Day 1, 1 g/L): 0
Mean Score (phytotoxic necrosis) ([3]; Day 7, 1 g/L): did not exhibit any phytotoxicity
Mean Score (phytotoxic necrosis) ([3]; Day 7, 1 g/L, listed as DKP (1a)): 0

CN1C(=O)[C@@H]2CCCN2C(=O)/C1=C\c1ccccc1 [DKP (Ib)]
cytotoxicity against Vero cells [1]: did not exhibit any cytotoxicity
inherent fungicidal activity [2]: did not demonstrate any inherent fungicidal activity

O=C1N/C(=C/c2ccccc2)C(=O)N2CCC[C@@H]12 [DKP (Id)]
cytotoxicity against Vero cells [1]: did not exhibit any cytotoxicity
inherent fungicidal activity [2]: did not demonstrate any inherent fungicidal activity

O=C1N/C(=C\c2ccccc2)C(=O)N2CCC[C@@H]12 [DKP (Ic)]
cytotoxicity against Vero cells [1]: did not exhibit any cytotoxicity
Fold Change in Growth Inhibition [2, 4]: 1.52
Fold Change in Growth Inhibition [2, 5]: 3.14
Fold Change in Growth Inhibition [2, 6]: 1.48
inherent fungicidal activity [2]: did not demonstrate any inherent fungicidal activity
